Assay results taken from the supplement of paper PMC10307832.

Experiments:
Test in all cases: relative viability (nuclei count vs DMSO), 5 days (fraction); higher = more cells survive
[1] = compound: CC(C)C[C@H](NC(=O)[C@H](CCc1ccccc1)NC(=O)CN1CCOCC1)C(=O)N[C@@H](Cc1ccccc1)C(=O)N[C@@H](CC(C)C)C(=O)[C@@]1(C)CO1 [Carfilzomib] + O=C(CCCCCCC(=O)Nc1ccccc1)NO [Vorinostat] (partner 1 µM)
How it was run: (§1)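 The day after seeding in 1536-well plates, lung cancer cell lines were treated by pin tool with a single drug, or with a fixed anchor-drug dose together with five library-drug doses (not always all listed) in √10 steps. After 5 days, a combined fix-and-stain solution (final 0.05% Triton X-100, 1% formaldehyde, 1 ug/ml Hoechst) was added. Nuclei counted on 4× images gave relative viability as treated counts over vehicle counts, reported as the median of duplicate plates.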

[2] = compound: O=C(c1cc(Cc2n[nH]c(=O)c3ccccc23)ccc1F)N1CCN(C(=O)C2CC2)CC1 [Olaparib] + CS(=O)(=O)N1CCN(Cc2cc3nc(-c4cccc5[nH]ncc45)nc(N4CCOCC4)c3s2)CC1 [Pictilisib] (partner 1 µM)
How it was run: as §1

[3] = compound: C[C@@H](Oc1cc(-c2cnn(C3CCNCC3)c2)cnc1N)c1c(Cl)ccc(F)c1Cl [Crizotinib] + O=C(CCCCCCC(=O)Nc1ccccc1)NO [Vorinostat] (partner 1 µM)
How it was run: as §1

[4] = compound: O=C(c1cc(Cc2n[nH]c(=O)c3ccccc23)ccc1F)N1CCN(C(=O)C2CC2)CC1 [Olaparib] + Nc1nc2[nH]cc(CCc3ccc(C(=O)N[C@@H](CCC(=O)O)C(=O)O)cc3)c2c(=O)[nH]1 [Pemetrexed] (partner 0.2 µM)
How it was run: as §1

Row | Cell Line | relative viability ([1]; first compound 0.001 µM) | relative viability ([1]; first compound 0.003162 µM) | relative viability ([1]; first compound 0.01 µM) | relative viability ([1]; first compound 0.03162 µM) | relative viability ([1]; first compound 0.1 µM) | relative viability ([2]; first compound 0.08 µM) | relative viability ([2]; first compound 0.253 µM) | relative viability ([2]; first compound 2.53 µM) | relative viability ([2]; first compound 8 µM) | relative viability ([3]; first compound 0.01 µM) | relative viability ([3]; first compound 0.03162 µM) | relative viability ([3]; first compound 0.1 µM) | relative viability ([3]; first compound 0.3162 µM) | relative viability ([3]; first compound 1 µM) | relative viability ([4]; first compound 0.08 µM) | relative viability ([4]; first compound 0.253 µM) | relative viability ([4]; first compound 2.53 µM) | relative viability ([4]; first compound 8 µM)
1 | 201T | 0.929 | 1 | 0.985 | 0.93 | 0.514 | 0.669 | 0.665 | 0.631 | 0.704 | 0.899 | 1.01 | 0.98 | 0.974 | 1.04 | 0.309 | 0.346 | 0.298 | 0.323
2 | A549 | – | – | – | – | – | 0.636 | 0.398 | 0.456 | 0.376 | – | – | – | – | – | – | – | – | –
3 | A-427 | 0.874 | 0.859 | 0.842 | 0.307 | 0.15 | 0.697 | 0.571 | 0.547 | 0.584 | 0.836 | 0.871 | 0.876 | – | 0.899 | 0.922 | 0.947 | 0.87 | 0.73
4 | ABC-1 | 0.706 | 0.534 | 0.35 | 0.274 | 0.257 | 0.916 | 0.777 | 0.65 | 0.625 | 1.04 | 1.06 | 1.22 | – | 1.02 | – | – | – | –
5 | BEN | 0.549 | 0.503 | 0.552 | 0.598 | 0.273 | 0.52 | 0.551 | 0.593 | 0.674 | 0.553 | 0.55 | 0.628 | 0.506 | 0.573 | 0.725 | 0.672 | 0.828 | 0.895
6 | CAL-12T | 0.722 | 0.794 | 0.77 | 0.487 | 0.121 | 0.772 | 0.413 | 0.452 | 0.439 | 0.855 | 0.788 | 0.647 | 0.713 | 0.725 | 1.48 | 1.04 | 1.16 | 0.963
7 | COR-L23 | 0.454 | 0.438 | 0.212 | 0.0648 | 0.0718 | 0.918 | 0.674 | 0.724 | 0.385 | 0.43 | 0.418 | 0.484 | 0.4 | 0.471 | 0.221 | 0.195 | 0.177 | 0.21
8 | COR-L 105 | 0.95 | 1 | 0.805 | 0.381 | 0.283 | 0.389 | 0.392 | 0.415 | 0.387 | 0.824 | 0.96 | 0.696 | 0.858 | 0.893 | 1.31 | 1 | 0.838 | 0.914
9 | Calu-6 | – | – | – | – | – | 1.12 | 0.825 | 0.858 | 0.75 | – | – | – | – | – | – | – | – | –
10 | ChaGo-K-1 | 0.718 | 0.802 | 0.589 | 0.235 | 0.157 | 1.27 | 0.674 | 0.75 | 0.661 | 0.703 | 0.706 | 0.712 | 0.4 | 0.727 | 0.266 | 0.258 | 0.261 | 0.256
